{"source": "paper PMC11054906", "about": "(Pharmaceuticals, 2024)", "key": {"[1]": {"parameters": "method as in PMID 23940010, PMID 27312794, PMID 29251772, PMID 24964723", "settings": "cited from earlier work"}, "[2]": {"test": "Population PK analysis (NLME, Monolix) of empagliflozin plasma concentrations from two phase 1 crossover studies", "assay_type": "in vivo, healthy Korean subjects", "text": "Data from two clinical studies (NCT03849495 and NCT03848637) were used in this study to develop the PK model and conduct population PK analysis. Both of the studies were randomized, open-label, two-period, two-sequence, crossover studies comparing the PK characteristics, safety and tolerability profiles of the two study drugs in healthy Korean subjects. Healthy subjects aged between 19 and 50 years with BMIs of 18–27 kg/m^2 were recruited for both studies. Subjects without any clinically significant medical history, and without any clinically significant findings in physical examinations, vital signs, 12-lead electrocardiograms (ECG), and clinical laboratory test results were eligible for the studies. Subjects who could not abstain from alcohol, smoking, or drug use throughout the study were excluded. To ensure safety, subjects with any allergies to the study medications were also excluded. Adverse drug reactions were assessed throughout the study period, and the monitoring of physical examinations, vital signs, 12-lead ECG, and laboratory tests was also performed.\nDemographic data, clinical laboratory data, and time–plasma concentration data were pooled to develop a population PK model.\nBlood samples were collected before drug administration (0 h) and 0.33 h, 0.67 h, 1 h, 1.5 h, 2 h, 2.5 h, 3 h, 4 h, 6 h, 8 h, 10 h, 12 h, 24 h, 34 h, and 48 h after study’s drug administration in the first study. In the second study, blood samples were also collected at 3.5 h and 5 h. Thus, a total of 16 and 18 blood samples were collected from each healthy volunteer in the two clinical studies, respectively. […] In the second study, the plasma concentrations of empagliflozin were quantified by using liquid chromatography–mass spectrometry (LC–MS) equipped with API 4000 (SCIEX; multiple reaction monitoring, electrospray ionization, and positive SCIEX mode). All experiments adhered to the standards of good laboratory practice as described previously. The calibration ranges in these two studies were 2–1500 ng/mL and 0.5–150 ng/mL, respectively.\nThe population PK analysis was conducted using a nonlinear mixed effect (NLME) modeling method with Monolix® Suite 2021R1 (Lixoft, Antony, France). The stochastic approximation expectation maximization (SAEM) algorithm was implemented, and model qualification was performed using a likelihood ratio test, Bayesian information criterion (BIC), goodness-of-fit (GOF) diagnostic plots, and visual predictive checks (VPCs). Various compartment models with lag time, transit compartment, and Weibull absorption were established to construct the base PK model.\nAfter the development of the base model, interindividual variability (IIV), interoccasion variability (IOV), and residual errors were added to the model. Because of the crossover study design, the random variation in the population PK parameters was described by both the IIV and IOV, with all the individual parameters considered to be log-normally distributed. IIV and IOV were sequentially implemented, and the parameters were subsequently removed or fixed at low values when converging to zero. The exponential random effects terms for the IIV and IOV are shown in Formulas (2) and (3), respectively. (2) Pi=θk×e^ηi where Pi represents the parameter value k from individual i and θk describes the population value of parameter k. ηi denotes the difference between Pi and θk. (3) Pi,occ=θk×e^ηi+Kkiq where Pi,occ is the individual parameter value k from individual i at occasion q that differs from the typical individual value by an additional random effect Kkiq. An occasion was characterized as the time period from the start of an infusion until the start of the next administration. ηki and Kkiq were assumed to be symmetrically distributed with a zero mean and a variance of σ^2 and γ^2, respectively. […]"}, "[3]": {"settings": "1000 bootstrap resampling, interindividual variability"}, "[4]": {"settings": "1000 bootstrap resampling, interoccasion variability"}, "[5]": {"settings": "final model, oral single dose, both formulations pooled"}}}
{"smiles": "OC[C@H]1O[C@@H](c2ccc(Cl)c(Cc3ccc(O[C@H]4CCOC4)cc3)c2)[C@H](O)[C@@H](O)[C@@H]1O", "note": "[empagliflozin, Empagliflozin]", "values": [{"measurement": "estimated Mtt", "setting": "[1]; three transit compartment model", "value": 30, "unit": "min"}, {"measurement": "lag time (fixed) of lagged first-order oral absorption", "setting": "[1]; two-compartment model", "value": 0.5, "unit": "h"}, {"measurement": "CL, median of bootstrap (95% CI)", "setting": "[2]; 1000 bootstrap resampling", "value": "8.21 (7.945–8.465) L/h"}, {"measurement": "Ka, median of bootstrap (95% CI)", "setting": "[2]; 1000 bootstrap resampling", "value": "0.25 (0.23–0.275) h^−1"}, {"measurement": "Ktr, median of bootstrap (95% CI)", "setting": "[2]; 1000 bootstrap resampling", "value": "8.94 (6.766–11.728) h^−1"}, {"measurement": "Mtt, median of bootstrap (95% CI)", "setting": "[2]; 1000 bootstrap resampling", "value": "0.64 (0.526–0.725) h"}, {"measurement": "Q, median of bootstrap (95% CI)", "setting": "[2]; 1000 bootstrap resampling", "value": "4.66 (3.979–5.456) L/h"}, {"measurement": "V1, median of bootstrap (95% CI)", "setting": "[2]; 1000 bootstrap resampling", "value": "0.64 (0–1.889) L"}, {"measurement": "V2, median of bootstrap (95% CI)", "setting": "[2]; 1000 bootstrap resampling", "value": "43.93 (41.255–47.171) L"}, {"measurement": "b (residual variability), median of bootstrap (95% CI)", "setting": "[2]; 1000 bootstrap resampling", "value": "0.16 (0.141–0.175)"}, {"measurement": "βCL_logWT, median of bootstrap (95% CI)", "setting": "[2]; 1000 bootstrap resampling", "value": "0.64 (0.366–0.926)"}, {"measurement": "βV2_logWT, median of bootstrap (95% CI)", "setting": "[2]; 1000 bootstrap resampling", "value": "0.54 (0.221–0.851)"}, {"measurement": "ωCL, median of bootstrap (95% CI)", "setting": "[2]; [3]", "value": "0.12 (0.101–0.141)"}, {"measurement": "ωKa, median of bootstrap (95% CI)", "setting": "[2]; [3]", "value": "0.16 (0.116–0.208)"}, {"measurement": "ωV2, median of bootstrap (95% CI)", "setting": "[2]; [3]", "value": "0.13 (0.1–0.172)"}, {"measurement": "γCL, median of bootstrap (95% CI)", "setting": "[2]; [4]", "value": "0.04 (0.025–0.06)"}, {"measurement": "γKa, median of bootstrap (95% CI)", "setting": "[2]; [4]", "value": "0.04 (0.023–0.062)"}, {"measurement": "γKtr, median of bootstrap (95% CI)", "setting": "[2]; [4]", "value": "1.11 (0.858–1.334)"}, {"measurement": "γMtt, median of bootstrap (95% CI)", "setting": "[2]; [4]", "value": "0.44 (0.359–0.528)"}, {"measurement": "b, residual variability (proportional error)", "setting": "[2]; final model", "value": 0.16}, {"measurement": "βV2_logWT (effect of log-transformed body weight on V2)", "setting": "[2]; final model, covariate coefficient", "value": 0.57}, {"measurement": "Ktr (transit rate constant), population value", "setting": "[2]; final model, oral single dose 25 mg or 5 mg (with metformin 1000 mg), both formulations pooled", "value": 9.19, "unit": "h⁻¹"}, {"measurement": "CL (clearance), population value", "setting": "[2]; [5]", "value": 8.21, "unit": "L/h"}, {"measurement": "Ka (absorption rate constant), population value", "setting": "[2]; [5]", "value": 0.26, "unit": "h⁻¹"}, {"measurement": "Mtt (mean transit time for absorption), population value", "setting": "[2]; [5]", "value": 0.63, "unit": "h"}, {"measurement": "V1, population value", "setting": "[2]; [5]", "value": 0.6, "unit": "L"}, {"measurement": "Mtt (mean transit time)", "setting": "[2]; final two-compartment transit model", "value": 37.8, "unit": "min"}, {"measurement": "number of transit compartments", "setting": "[2]; from Formula (1), Mtt and Ktr of the final model", "value": 4.79}, {"measurement": "γCL, interoccasion variability", "setting": "[2]; presented as SD (CV)", "value": 4.3, "unit": "%"}, {"measurement": "γKa, interoccasion variability", "setting": "[2]; presented as SD (CV)", "value": "0.029 (2.90) %"}, {"measurement": "γKtr, interoccasion variability", "setting": "[2]; presented as SD (CV)", "value": "1.17 (171.20) %"}, {"measurement": "γMtt, interoccasion variability", "setting": "[2]; presented as SD (CV)", "value": "0.42 (43.92) %"}, {"measurement": "ωCL, interindividual variability", "setting": "[2]; presented as SD (CV)", "value": "0.12 (12.04) %"}, {"measurement": "ωV2, interindividual variability", "setting": "[2]; presented as SD (CV)", "value": "0.13 (13.06) %"}]}
